What follows are molecules tested against T1, Chk1 (Homo sapiens, UniProt O14757) (assay: Chk1 kinase assay: incorporation of γ-33P ATP into immobilized myelin basic protein). Details: Table 11, Chk1 only; class symbols A-D; read-out: Chk1 IC50.
T1 construct: purchased Upstate Biotechnology
T1 sequence (O14757 1-476): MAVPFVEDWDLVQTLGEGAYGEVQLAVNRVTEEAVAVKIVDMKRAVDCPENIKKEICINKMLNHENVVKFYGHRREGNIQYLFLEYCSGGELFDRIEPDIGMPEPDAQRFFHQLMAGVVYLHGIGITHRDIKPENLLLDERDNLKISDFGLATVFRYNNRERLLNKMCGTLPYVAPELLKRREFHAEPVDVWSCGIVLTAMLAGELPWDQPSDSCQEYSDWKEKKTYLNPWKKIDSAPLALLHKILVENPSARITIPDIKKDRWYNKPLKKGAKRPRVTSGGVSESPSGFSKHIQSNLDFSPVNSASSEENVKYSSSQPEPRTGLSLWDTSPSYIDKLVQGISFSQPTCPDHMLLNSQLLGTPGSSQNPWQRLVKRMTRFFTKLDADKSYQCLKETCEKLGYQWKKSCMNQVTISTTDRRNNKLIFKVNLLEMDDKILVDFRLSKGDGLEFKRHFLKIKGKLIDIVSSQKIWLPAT
Assay type: biochemical
Outline: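 Immobilized-MBP radiometric kinase assay, room temperature for 1 h; ATP 10 μM (Chk1, 10 nM enzyme) or 30 μM (Chk2, 20 nM enzyme) with 33P tracer. Values are IC50s, with Ki derived from them.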

IC50 [nM]	Compound
< 50	Nc1ncc(-c2cccc(C(=O)N[C@H]3CCCN3)c2)nc1C(=O)N[C@H]1CCCNC1 [Example 928, 3-amino-N-[(3S)-piperidin-3-yl]-6-(3-{[(2S)-pyrrolidin-2-ylamino]carbonyl}phenyl)pyrazine-2-carboxamide]
< 50	CN1CCN(c2ccc(CNC(=O)c3cccc(-c4cnc(N)c(C(=O)N[C@H]5CCCNC5)n4)c3)cc2)CC1 [Example 924, 3-amino-6-{3-[({[4-(4-methylpiperazin-1-yl)phenyl]methyl}amino)carbonyl]phenyl}-N-[(3S)-piperidin-3-yl]pyrazine-2-carboxamide]
< 50	Nc1ncc(-c2cccc(C(=O)NCc3ccc(F)c(F)c3)c2)nc1C(=O)N[C@H]1CCCCNC1 [Example 1008, 3-amino-N-[(3S)-azepan-3-yl]-6-[3-({[(3,4-difluorophenyl)methyl]amino}carbonyl)phenyl]pyrazine-2-carboxamide]
< 50	COc1ccc(CNC(=O)c2cccc(-c3cnc(N)c(C(=O)N[C@H]4CCCNC4)n3)c2)cc1 [Example 831, 3-amino-6-{3-[({[4-(methyloxy)phenyl]methyl}amino)carbonyl]phenyl}-N-[(3S)-piperidin-3-yl]pyrazine-2-carboxamide]
< 50	Nc1ncc(-c2cccc(OCCO)c2)nc1C(=O)N[C@H]1CCCNC1 [Example 904, 3-amino-6-{3-[(2-hydroxyethyl)oxy]phenyl}-N-[(3S)-piperidin-3-yl]pyrazine-2-carboxamide]
< 50	CC(C)(C)c1ccc(CNC(=O)c2cccc(-c3cnc(N)c(C(=O)N[C@H]4CCCNC4)n3)c2)cc1 [Example 950, 3-amino-6-{3-[({[4-(1,1-dimethylethyl)phenyl]methyl}amino)carbonyl]phenyl}-N-[(3S)-piperidin-3-yl]pyrazine-2-carboxamide]
< 50	Nc1ncc(-c2cccc(CNC(=O)c3csc(-c4cccs4)n3)c2)nc1C(=O)N[C@H]1CCCNC1 [Example 948, 3-amino-N-[(3S)-piperidin-3-yl]-6-{3-[({[2-(2-thienyl)-1,3-thiazol-4-yl]carbonyl}amino)methyl]phenyl}pyrazine-2-carboxamide]
< 50	Nc1ncc(-c2cccc(C(=O)NCc3ccc(F)c(Br)c3)c2)nc1C(=O)N[C@H]1CCCNC1 [Example 1027, 3-amino-6-[3-({[(3-bromo-4-fluorophenyl)methyl]amino}carbonyl)phenyl]-N-[(3S)-piperidin-3-yl]pyrazine-2-carboxamide]
< 50	Nc1ncc(-c2cccc(C(=O)NCc3ccccc3-c3ccccc3)c2)nc1C(=O)N[C@H]1CCCNC1 [Example 847, 3-amino-6-(3-{[(biphenyl-2-ylmethyl)amino]carbonyl}phenyl)-N-[(3S)-piperidin-3-yl]pyrazine-2-carboxamide]
< 50	Nc1ncc(-c2cccc(C(=O)NCc3cc(F)c(F)c(F)c3)c2)nc1C(=O)N[C@H]1CCNC1 [Example 814, 3-amino-N-[(3S)-pyrrolidin-3-yl]-6-[3-({[(3,4,5-trifluorophenyl)methyl]amino}carbonyl)phenyl]pyrazine-2-carboxamide]
< 50	Nc1ncc(-c2cccc(C(=O)NCc3c(F)cccc3Cl)c2)nc1C(=O)N[C@H]1CCCCNC1 [Example 1021, 3-amino-N-[(3S)-azepan-3-yl]-6-[3-({[(2-chloro-6-fluorophenyl)methyl]amino}carbonyl)phenyl]pyrazine-2-carboxamide]

Same assay, conditions: Table 11; Chk1 only; read-out: Chk1 IC50

IC50 [nM]	Compound
≥ 10000	C/C(=N\n1nnc2ccccc21)c1nc(-c2cccc(C(=O)NCc3ccccc3)c2)cnc1N [Example 637, 3-{5-amino-6-[(1E)-N-1H-1,2,3-benzotriazol-1-ylethanimidoyl]pyrazin-2-yl}-N-(phenylmethyl)benzamide]
< 50	Nc1ncc(-c2cccc(C(=O)NCc3ccc(OC(F)(F)F)cc3)c2)nc1C(=O)N[C@H]1CCNC1 [Example 744, 3-amino-N-[(3S)-pyrrolidin-3-yl]-6-(3-{[({4-[(trifluoromethyl)oxy]phenyl}methyl)amino]carbonyl}phenyl)pyrazine-2-carboxamide]
≥ 10000	Nc1ncc(-c2cccc(CNC3CCc4ccccc43)c2)nc1C(=O)NCc1ccc2ccccc2c1 (centres unmarked) [Example 532, 3-amino-6-{3-[(2,3-dihydro-1H-inden-1-ylamino)methyl]phenyl}-N-(naphthalen-2-ylmethyl)pyrazine-2-carboxamide]
< 50	Nc1ncc(-c2cccc(CN[C@H]3CCc4ccccc43)c2)nc1C(=O)N[C@H]1CCNC1 [Example 685, 3-amino-6-(3-{[(1S)-2,3-dihydro-1H-inden-1-ylamino]methyl}phenyl)-N-[(3S)-pyrrolidin-3-yl]pyrazine-2-carboxamide]
≥ 10000	Nc1ncc(-c2cccc(C(=O)NCc3ccccc3)c2)nc1C(=O)NCC(=O)O [Example 577, N-{[3-amino-6-(3-{[(phenylmethyl)amino]carbonyl}phenyl)pyrazin-2-yl]carbonyl}glycine]
50 to 1000	Nc1ncc(-c2cccc(CN[C@H]3CCc4ccccc43)c2)nc1C(=O)NC1CC1 [Example 548, 3-amino-N-cyclopropyl-6-(3-{[(1S)-2,3-dihydro-1H-inden-1-ylamino]methyl}phenyl)pyrazine-2-carboxamide]
≥ 10000	Nc1ncc(-c2cccc(C(=O)NCc3ccccc3)c2)nc1C(=O)c1ccc(-c2ccccc2)cc1 [Example 579, 3-[5-amino-6-(biphenyl-4-ylcarbonyl)pyrazin-2-yl]-N-(phenylmethyl)benzamide]
50 to 1000	Nc1ncc(-c2cccc(C(=O)N3CCc4ccccc4C3)c2)nc1C(=O)N[C@H]1CCNC1 [Example 714, 3-amino-6-[3-(3,4-dihydroisoquinolin-2(1H)-ylcarbonyl)phenyl]-N-[(3S)-pyrrolidin-3-yl]pyrazine-2-carboxamide]

Same assay, conditions: read-out: Chk1 IC50

IC50 [nM]	Compound
1000 to 10000	CCNC(=O)c1nc(-c2cccc(C(=O)OC)c2)cnc1N [Example 242, methyl 3-{5-amino-6-[(ethylamino)carbonyl]pyrazin-2-yl}benzoate]
50 to 1000	CNC(=O)c1nc(-c2cccc(C(=O)NCc3ccc(N)cc3)c2)cnc1N [Example 230, 3-amino-6-[3-({[(4-aminophenyl)methyl]amino}carbonyl)phenyl]-N-methylpyrazine-2-carboxamide]
50 to 1000	CNC(=O)c1nc(-c2cccc(C(=O)NCc3ccc(C)cc3C)c2)cnc1N [Example 214, 3-amino-6-[3-({[(2,4-dimethylphenyl)methyl]amino}carbonyl)phenyl]-N-methylpyrazine-2-carboxamide]
50 to 1000	CNC(=O)c1nc(-c2cccc(CNC(=O)c3cc4ccccc4[nH]3)c2)cnc1N [Example 334, N-[(3-{5-amino-6-[(methylamino)carbonyl]pyrazin-2-yl}phenyl)methyl]-1H-indole-2-carboxamide]
50 to 1000	CNC(=O)c1nc(-c2ccc(C(=O)NCc3ccc(Cl)cc3Cl)cc2)cnc1N [Example 152, 3-amino-6-[4-({[(2,4-dichlorophenyl)methyl]amino}carbonyl)phenyl]-N-methylpyrazine-2-carboxamide]
50 to 1000	CNC(=O)c1nc(-c2cccc(C(=O)NCc3ccccc3-c3cccnc3)c2)cnc1N [Example 391, 3-amino-N-methyl-6-[3-({[(2-pyridin-3-ylphenyl)methyl]amino}carbonyl)phenyl]pyrazine-2-carboxamide]
50 to 1000	CNC(=O)c1nc(-c2cccc(C(=O)NCc3ccccc3C(F)(F)F)c2)cnc1N [Example 109, 3-amino-N-methyl-6-{3-[({[2-(trifluoromethyl)phenyl]methyl}amino)carbonyl]phenyl}pyrazine-2-carboxamide]
50 to 1000	CNC(=O)c1nc(-c2cccc(CNCc3ccc(N)cc3)c2)cnc1N [Example 396, 3-amino-6-[3-({[(4-aminophenyl)methyl]amino}methyl)phenyl]-N-methylpyrazine-2-carboxamide]
50 to 1000	CNC(=O)c1nc(-c2cccc(C(=O)NCc3ccc(F)c(C)c3)c2)cnc1N [Example 299, 3-amino-6-[3-({[(4-fluoro-3-methylphenyl)methyl]amino}carbonyl)phenyl]-N-methylpyrazine-2-carboxamide]
≥ 10000	COc1ccccc1-c1cnc(N)c(C(N)=O)n1 [Example 17, 3-amino-6-[2-(methyloxy)phenyl]pyrazine-2-carboxamide]
50 to 1000	CCCCc1ccc(CNC(=O)c2cccc(-c3cnc(N)c(C(=O)NC)n3)c2)cc1 [Example 375, 3-amino-6-[3-({[(4-butylphenyl)methyl]amino}carbonyl)phenyl]-N-methylpyrazine-2-carboxamide]
50 to 1000	CNC(=O)c1nc(-c2cccc(C(=O)NCc3ccc(Cl)c(Cl)c3)c2)cnc1N [Example 279, 3-amino-6-[3-({[(3,4-dichlorophenyl)methyl]amino}carbonyl)phenyl]-N-methylpyrazine-2-carboxamide]
1000 to 10000	CNC(=O)c1nc(-c2cccc(OC)c2)cnc1N [Example 60, 3-amino-N-methyl-6-[3-(methyloxy)phenyl]pyrazine-2-carboxamide]

Reference: patent US7704995B2 (Exelixis, Inc., priority 2003, dated 2010)
